Results from the NIST ThermoML archive (doi:10.1016/j.jct.2016.07.047).
± gives the expanded uncertainty stated by the source.

Assay: mn = molality of the nth substance listed, in mol/kg
Conditions: Liquid; for viscosity: Falling or rolling sphere viscometry; for electrical conductivity: Frequency=0.0003 MHz, Alternating current cell with electrodes; for mass density: Vibrating tube method

NCC(=O)O [2-aminoacetic acid] + O
viscosity (288.15 K, 87 kPa, m1 = 0.1): 1.144 ± 0.031 mPa·s | viscosity (288.15 K, 87 kPa, m1 = 0.3): 1.176 ± 0.031 mPa·s | viscosity (288.15 K, 87 kPa, m1 = 0.5): 1.208 ± 0.031 mPa·s | electrical conductivity (288.15 K, 87 kPa, m1 = 0.1): 0.000925 ± 0.00014 S/m | electrical conductivity (288.15 K, 87 kPa, m1 = 0.3): 0.00227 ± 0.00014 S/m | electrical conductivity (288.15 K, 87 kPa, m1 = 0.5): 0.00355 ± 0.00014 S/m | mass density (288.15 K, 87 kPa, m1 = 0.1): 1002.42 ± 1.4 kg/m3 | mass density (288.15 K, 87 kPa, m1 = 0.3): 1008.66 ± 1.4 kg/m3 | mass density (288.15 K, 87 kPa, m1 = 0.5): 1014.9 ± 1.4 kg/m3 | viscosity (298.15 K, 87 kPa, m1 = 0.1): 0.924 ± 0.031 mPa·s | viscosity (298.15 K, 87 kPa, m1 = 0.3): 0.95 ± 0.031 mPa·s | viscosity (298.15 K, 87 kPa, m1 = 0.5): 0.984 ± 0.031 mPa·s | electrical conductivity (298.15 K, 87 kPa, m1 = 0.1): 0.000963 ± 0.00014 S/m | electrical conductivity (298.15 K, 87 kPa, m1 = 0.3): 0.00239 ± 0.00014 S/m | electrical conductivity (298.15 K, 87 kPa, m1 = 0.5): 0.00381 ± 0.00014 S/m | mass density (298.15 K, 87 kPa, m1 = 0.1): 1000.23 ± 1.4 kg/m3 | mass density (298.15 K, 87 kPa, m1 = 0.3): 1006.29 ± 1.4 kg/m3 | mass density (298.15 K, 87 kPa, m1 = 0.5): 1012.35 ± 1.4 kg/m3 | viscosity (308.15 K, 87 kPa, m1 = 0.1): 0.729 ± 0.03 mPa·s | viscosity (308.15 K, 87 kPa, m1 = 0.3): 0.749 ± 0.03 mPa·s | viscosity (308.15 K, 87 kPa, m1 = 0.5): 0.77 ± 0.031 mPa·s | electrical conductivity (308.15 K, 87 kPa, m1 = 0.1): 0.00101 ± 0.00014 S/m | electrical conductivity (308.15 K, 87 kPa, m1 = 0.3): 0.00253 ± 0.00014 S/m | electrical conductivity (308.15 K, 87 kPa, m1 = 0.5): 0.0041 ± 0.00014 S/m | mass density (308.15 K, 87 kPa, m1 = 0.3): 1003.23 ± 1.4 kg/m3 | mass density (308.15 K, 87 kPa, m1 = 0.5): 1009.25 ± 1.4 kg/m3 | viscosity (318.15 K, 87 kPa, m1 = 0.1): 0.613 ± 0.03 mPa·s | viscosity (318.15 K, 87 kPa, m1 = 0.3): 0.638 ± 0.03 mPa·s | viscosity (318.15 K, 87 kPa, m1 = 0.5): 0.662 ± 0.03 mPa·s | electrical conductivity (318.15 K, 87 kPa, m1 = 0.1): 0.00106 ± 0.00014 S/m | electrical conductivity (318.15 K, 87 kPa, m1 = 0.3): 0.00269 ± 0.00014 S/m | electrical conductivity (318.15 K, 87 kPa, m1 = 0.5): 0.00445 ± 0.00014 S/m | mass density (318.15 K, 87 kPa, m1 = 0.1): 993.28 ± 1.4 kg/m3 | mass density (318.15 K, 87 kPa, m1 = 0.3): 999.24 ± 1.4 kg/m3 | mass density (318.15 K, 87 kPa, m1 = 0.5): 1005.2 ± 1.4 kg/m3

C[C@H](N)C(=O)O [(S)-2-aminopropanoic acid] + O
electrical conductivity (288.15 K, 87 kPa, m1 = 0.1): 0.000237 ± 0.00014 S/m | electrical conductivity (288.15 K, 87 kPa, m1 = 0.3): 0.000567 ± 0.00014 S/m | electrical conductivity (288.15 K, 87 kPa, m1 = 0.5): 0.000861 ± 0.00014 S/m | viscosity (288.15 K, 100 kPa, m1 = 0.1): 1.16 ± 0.031 mPa·s | viscosity (288.15 K, 100 kPa, m1 = 0.3): 1.223 ± 0.031 mPa·s | viscosity (288.15 K, 100 kPa, m1 = 0.5): 1.286 ± 0.031 mPa·s | mass density (288.15 K, 100 kPa, m1 = 0.1): 1002.1 ± 1.4 kg/m3 | mass density (288.15 K, 100 kPa, m1 = 0.3): 1007.7 ± 1.4 kg/m3 | mass density (288.15 K, 100 kPa, m1 = 0.5): 1013.3 ± 1.4 kg/m3 | electrical conductivity (298.15 K, 87 kPa, m1 = 0.1): 0.000293 ± 0.00014 S/m | electrical conductivity (298.15 K, 87 kPa, m1 = 0.3): 0.000659 ± 0.00014 S/m | electrical conductivity (298.15 K, 87 kPa, m1 = 0.5): 0.000968 ± 0.00014 S/m | viscosity (298.15 K, 100 kPa, m1 = 0.1): 0.91 ± 0.031 mPa·s | viscosity (298.15 K, 100 kPa, m1 = 0.3): 0.955 ± 0.031 mPa·s | viscosity (298.15 K, 100 kPa, m1 = 0.5): 1.001 ± 0.031 mPa·s | mass density (298.15 K, 100 kPa, m1 = 0.1): 999.97 ± 1.4 kg/m3 | mass density (298.15 K, 100 kPa, m1 = 0.3): 1005.51 ± 1.4 kg/m3 | mass density (298.15 K, 100 kPa, m1 = 0.5): 1011.05 ± 1.4 kg/m3 | electrical conductivity (308.15 K, 87 kPa, m1 = 0.1): 0.000357 ± 0.00014 S/m | electrical conductivity (308.15 K, 87 kPa, m1 = 0.3): 0.000783 ± 0.00014 S/m | electrical conductivity (308.15 K, 87 kPa, m1 = 0.5): 0.00117 ± 0.00014 S/m | viscosity (308.15 K, 100 kPa, m1 = 0.1): 0.738 ± 0.03 mPa·s | viscosity (308.15 K, 100 kPa, m1 = 0.3): 0.774 ± 0.031 mPa·s | viscosity (308.15 K, 100 kPa, m1 = 0.5): 0.809 ± 0.031 mPa·s | mass density (308.15 K, 100 kPa, m1 = 0.1): 996.94 ± 1.4 kg/m3 | mass density (308.15 K, 100 kPa, m1 = 0.3): 1002.42 ± 1.4 kg/m3 | mass density (308.15 K, 100 kPa, m1 = 0.5): 1007.9 ± 1.4 kg/m3 | electrical conductivity (318.15 K, 87 kPa, m1 = 0.1): 0.000441 ± 0.00014 S/m | electrical conductivity (318.15 K, 87 kPa, m1 = 0.3): 0.000946 ± 0.00014 S/m | electrical conductivity (318.15 K, 87 kPa, m1 = 0.5): 0.00141 ± 0.00014 S/m | viscosity (318.15 K, 100 kPa, m1 = 0.1): 0.613 ± 0.03 mPa·s | viscosity (318.15 K, 100 kPa, m1 = 0.3): 0.649 ± 0.031 mPa·s | viscosity (318.15 K, 100 kPa, m1 = 0.5): 0.685 ± 0.03 mPa·s | mass density (318.15 K, 100 kPa, m1 = 0.1): 993.09 ± 1.4 kg/m3 | mass density (318.15 K, 100 kPa, m1 = 0.3): 998.47 ± 1.4 kg/m3 | mass density (318.15 K, 100 kPa, m1 = 0.5): 1003.85 ± 1.4 kg/m3
